Article PMC6061170, “Synthesis and biological investigations of 3β-aminotropane arylamide derivatives with atypical antipsychotic profile” (Medicinal Chemistry Research, 2018)
Where two headings read alike, the source gives them in different places.

Tests used:
[1] = target: T1, serotonin 5-HT2A receptors (Rattus norvegicus, UniProt P14842); assay: Radioligand binding assay, 5-HT2A receptors
T1 construct: from tissue; host or cells: rat brain tissues

[2] = target: dopamine D2 receptors (Rattus norvegicus, UniProt P61169); assay: Radioligand binding assay, D2 receptors
[3] = target: T2, serotonin 5-HT1A receptors (Rattus norvegicus, UniProt P19327); assay: Radioligand binding assay, 5-HT1A receptors
T2 construct: from tissue; host or cells: rat brain tissues
T2 sequence (P19327 1-422): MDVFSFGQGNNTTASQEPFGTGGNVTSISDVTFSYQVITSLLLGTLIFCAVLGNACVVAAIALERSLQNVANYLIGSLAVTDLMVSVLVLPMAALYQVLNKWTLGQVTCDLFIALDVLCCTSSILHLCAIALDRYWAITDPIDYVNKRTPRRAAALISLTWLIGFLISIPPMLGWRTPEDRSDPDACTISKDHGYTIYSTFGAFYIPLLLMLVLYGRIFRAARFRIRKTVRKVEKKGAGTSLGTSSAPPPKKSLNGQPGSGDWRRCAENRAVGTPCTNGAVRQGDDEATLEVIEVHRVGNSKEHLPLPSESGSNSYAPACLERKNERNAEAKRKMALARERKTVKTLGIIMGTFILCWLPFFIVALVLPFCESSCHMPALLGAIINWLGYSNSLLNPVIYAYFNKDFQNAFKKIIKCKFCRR
Description: All compounds were tested for their affinities for 5-HT1A, 5-HT2A, and D2 receptors according to previously described procedures (Stefanowicz et al. [2016]).
Competition binding studies were performed according to a previously described procedure in rat brain tissues (Stefanowicz et al. [2016]).

[4] = tested on: Albino Swiss mice; assay: Four-plate test; conditions: 60 min before test
[5] = tested on: Albino Swiss mice; assay: Forced swim test; conditions: last 4 min of session
[6] = rat brain tissues, read-out: 5-HT2A IC50 [nM] ± SEM
[7] = rat brain tissues, read-out: 5-HT2A Ki [nM] ± SEM
[8] = rat brain tissues, read-out: D2 IC50 [nM] ± SEM
[9] = rat brain tissues, read-out: D2 Ki [nM] ± SEM
[10] = rat brain tissues, read-out: 5-HT1A IC50 [nM] ± SEM
[11] = rat brain tissues, read-out: 5-HT1A Ki [nM] ± SEM

T1 sequence (P14842 whole entry): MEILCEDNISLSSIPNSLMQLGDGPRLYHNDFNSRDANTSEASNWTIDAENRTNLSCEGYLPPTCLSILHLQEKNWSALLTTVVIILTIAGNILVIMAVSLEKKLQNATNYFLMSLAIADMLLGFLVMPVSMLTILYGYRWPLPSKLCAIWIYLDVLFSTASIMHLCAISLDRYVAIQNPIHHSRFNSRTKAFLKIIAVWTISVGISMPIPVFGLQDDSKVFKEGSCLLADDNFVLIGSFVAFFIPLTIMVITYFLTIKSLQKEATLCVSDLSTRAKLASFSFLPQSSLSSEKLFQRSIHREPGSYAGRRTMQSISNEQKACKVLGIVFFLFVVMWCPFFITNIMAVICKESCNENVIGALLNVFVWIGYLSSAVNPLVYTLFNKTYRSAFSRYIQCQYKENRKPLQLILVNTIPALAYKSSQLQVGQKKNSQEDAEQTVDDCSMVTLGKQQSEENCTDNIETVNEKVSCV
Chain of dopamine D2 receptors (P61169 1-415 isoform P61169-2): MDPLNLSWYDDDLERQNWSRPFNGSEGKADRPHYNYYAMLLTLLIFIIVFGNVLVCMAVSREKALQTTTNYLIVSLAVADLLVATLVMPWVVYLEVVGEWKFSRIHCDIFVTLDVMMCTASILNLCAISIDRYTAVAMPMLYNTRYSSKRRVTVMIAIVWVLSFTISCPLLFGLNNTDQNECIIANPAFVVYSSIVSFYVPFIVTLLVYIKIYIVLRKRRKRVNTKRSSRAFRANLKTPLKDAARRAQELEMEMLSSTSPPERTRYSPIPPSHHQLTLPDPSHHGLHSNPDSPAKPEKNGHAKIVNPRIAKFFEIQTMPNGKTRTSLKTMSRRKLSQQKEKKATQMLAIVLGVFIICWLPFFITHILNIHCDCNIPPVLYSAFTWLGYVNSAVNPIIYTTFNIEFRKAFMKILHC

COc1cc(C(=O)NC2CC3CCC(C2)N3Cc2ccccn2)nc2ccccc12 (stereo not shown) [Compound 12o]
IC50 [1, 6]: > 10000 nM
Ki [1, 7]: > 10000 nM
IC50 [2, 8]: > 10000 nM
Ki [2, 9]: > 10000 nM
melting point: 132.5 to 133 °C
IC50 [3, 10]: 453 ± 12.6 nM
Ki [3, 11]: 151 ± 4.1 nM

O=C(NC1CC2CCC(C1)N2Cc1cccnc1)c1ccc2ccccc2n1 (stereo not shown) [Compound 12p]
IC50 [1, 6]: > 10000 nM
Ki [1, 7]: > 10000 nM
IC50 [2, 8]: 5440 ± 1030 nM
Ki [2, 9]: 1090 ± 205 nM
melting point: 143 to 143.4 °C
IC50 [3, 10]: 3250 ± 122 nM
Ki [3, 11]: 1080 ± 40.5 nM

O=C(NC1CC2CCC(C1)N2Cc1cccnc1)c1cnc2ccccc2c1 (stereo not shown) [Compound 12q]
IC50 [1]: > 10000 nM
Ki [1]: > 10000 nM
IC50 [2]: > 10000 nM
Ki [2]: > 10000 nM
melting point: 138.3 to 146.2 °C
IC50 [3]: > 10000 nM
Ki [3]: > 10000 nM

O=C(NC1CC2CCC(C1)N2Cc1cccnc1)c1ccc2ncccc2c1 (stereo not shown) [Compound 12r]
IC50 [1]: > 10000 nM
Ki [1]: > 10000 nM
IC50 [2]: > 10000 nM
Ki [2]: > 10000 nM
melting point: 158.3 to 162.5 °C
IC50 [3]: > 10000 nM
Ki [3]: > 10000 nM

COc1cc(C(=O)NC2CC3CCC(C2)N3Cc2cccnc2)nc2ccccc12 (stereo not shown) [Compound 12s]
IC50 [1, 6]: > 10000 nM
Ki [1, 7]: > 10000 nM
IC50 [2, 8]: > 10000 nM
Ki [2, 9]: > 10000 nM
melting point: 162.6 to 165.5 °C
IC50 [3, 10]: 3750 ± 264 nM
Ki [3, 11]: 1250 ± 88 nM

O=C(NC1CC2CCC(C1)N2Cc1ccncc1)c1ccc2ccccc2n1 (stereo not shown) [Compound 12t]
IC50 [1, 6]: > 10000 nM
Ki [1, 7]: > 10000 nM
IC50 [2, 8]: > 10000 nM
Ki [2, 9]: > 10000 nM
melting point: 143 to 145.7 °C
IC50 [3, 10]: 2430 ± 31 nM
Ki [3, 11]: 809 ± 10.5 nM

O=C(NC1CC2CCC(C1)N2Cc1ccncc1)c1cnc2ccccc2c1 (stereo not shown) [Compound 12u]
IC50 [1]: 4528 ± 22.5 nM
Ki [1]: 1229 ± 6 nM
IC50 [2]: > 10000 nM
Ki [2]: > 10000 nM
melting point: 69.5 to 72 °C
IC50 [3]: > 10000 nM
Ki [3]: > 10000 nM

O=C(NC1CC2CCC(C1)N2Cc1ccncc1)c1ccc2ncccc2c1 (stereo not shown) [Compound 12v]
IC50 [1]: > 10000 nM
Ki [1]: > 10000 nM
IC50 [2]: > 10000 nM
Ki [2]: > 10000 nM
melting point: 182 to 183.3 °C
IC50 [3]: > 10000 nM
Ki [3]: > 10000 nM

COc1cc(C(=O)NC2CC3CCC(C2)N3Cc2ccncc2)nc2ccccc12 (stereo not shown) [Compound 12w]
IC50 [1, 6]: > 10000 nM
Ki [1, 7]: > 10000 nM
IC50 [2, 8]: > 10000 nM
Ki [2, 9]: > 10000 nM
melting point: 52 to 55 °C
IC50 [3, 10]: 942 ± 52.9 nM
Ki [3, 11]: 314 ± 18 nM

Nc1cccc(CN2C3CCC2CC(NC(=O)c2ccc4ccccc4c2)C3)c1 (stereo not shown) [Compound 19b]
IC50 [1, 6]: 766 ± 48.4 nM
Ki [1, 7]: 208 ± 13.2 nM
IC50 [2, 8]: 1560 ± 19.9 nM
Ki [2, 9]: 312 ± 3.9 nM
melting point: 165.4 to 166.6 °C
IC50 [3, 10]: 862 ± 49.5 nM
Ki [3, 11]: 286 ± 16.4 nM

Nc1ccc(CN2C3CCC2CC(NC(=O)c2ccc4ccccc4c2)C3)cc1 (stereo not shown) [Compound 19c]
IC50 [1, 6]: 4580 ± 199 nM
Ki [1, 7]: 1240 ± 54 nM
IC50 [2, 8]: 682 ± 42.7 nM
Ki [2, 9]: 136 ± 8.5 nM
melting point: 201.6 to 208.8 °C
IC50 [3, 10]: 4040 ± 469 nM
Ki [3, 11]: 1340 ± 156 nM

CN1C(=O)CN=C(c2ccccc2)c2cc(Cl)ccc21 [Diazepam, reference compound]
Number of punished crossings /1 min Mean ± SEM ([4]; diazepam 1.25 mg/kg): 5.8 ± 0.3; p < 0.01 crossings/1 min
Number of punished crossings /1 min Mean ± SEM ([4]; diazepam 2.5 mg/kg): 6.4 ± 0.5; p < 0.01 crossings/1 min
Number of punished crossings /1 min Mean ± SEM ([4]; diazepam 5 mg/kg): 6.6 ± 0.4; p < 0.05 F(3,36) = 6.455; p < 0.01 crossings/1 min

CN(C)CCCN1c2ccccc2CCc2ccccc21 [Imipramine, reference compound]
Immobility time (s) Mean ± SEM ([5]; 5 mg/kg i.p. 30 min before test): 170.42 ± 10.9 s
Immobility time (s) Mean ± SEM ([5]; 20 mg/kg i.p. 30 min before test): 77.81 ± 12.2; p < 0.001 F(3,36) = 16.7570; p < 0.0001 s
